Measurements taken from patent US20160193325A1 (priority 2002, published 2016).

Test system: HCVpp
Settings: 25 μM AZT before and during infection; Huh-7
Method: HCVpp were treated with 25 μM AZT (3′-azido-3′-deoxythymidine; Sigma-Aldrich, France) before and during infection of target cells (lane j).

Cc1cn([C@H]2C[C@H](N=[N+]=[N-])[C@@H](CO)O2)c(=O)[nH]c1=O [AZT, 3′-azido-3′-deoxythymidine]
effect on transduction: inhibited transduction
